The values that follow come from patent publication US20240287071A1, “CLASS OF IMIDAZOLIDINOPYRIMIDONE COMPOUNDS AND USE THEREOF IN TREATMENT OF HSCLPP-MEDIATED DISEASES” (SICHUAN UNIVERSITY, priority 2021, published 2024).

Structures are written as SMILES. Read-outs that look alike come from different tables or passages of the source.

Data set [1] deals with A172. The data set can be described thus: CCK-8 in vitro anti-tumor proliferation assay. The format is cell-based. The following applies: Homo sapiens, A 172; Table 3; 72 hours. As to the method:
(§1) Example 3: In vitro anti-tumor proliferation assay of the compounds. The purpose of this experiment was to use CCK-8 to detect the in vitro inhibitory activity of the compounds of the present invention against the proliferation of tumor cells. The main reagents, such as RPMI-1640, DMEM high-glucose culture medium, fetal bovine serum, trypsin, etc., were purchased from Gibco BRL. CCK8 and DMSO were products of Sigma. For in vitro experiment, the test compounds were prepared as 10 mM stock solutions in DMSO and stored at −20° C. in the refrigerator in the dark for later use, then diluted to desired concentration with complete culture medium before use. The human lung cancer cells, colon cancer cells, breast cancer cells, glioblastoma cells, human myelomonocytic leukemia cells, and human Burkitt's lymphoma cells used in this experiment were all purchased from the American ATCC company and preserved in laboratory of the inventors. All the above cell lines were cultured in RPMI-1640 complete medium or DMEM complete medium containing 10% fetal bovine serum, 100 U/mL penicillin, and 100 μg/mL streptomycin under 5% carbon dioxide, 37° C. conditions. […] The previous culture medium was discarded, fresh culture medium was added to resuspend the cells, and then the cells were counted. According to the growth rate of different cells, the cell seeding concentration was determined, generally being 3000-5000 cells/well. After determining the seeding concentration, the cell suspension was diluted to desired concentrations with fresh culture medium, and then added to a 96-well plate with 100 μL per well, and 200 μL of PBS was added to the edge wells to prevent evaporation of the culture medium. On the second day, drug treatment was performed. First, the compounds were diluted into a series of gradients with culture medium, and then the drug solution was added to the 96-well plate, with 3 parallel wells for each gradient. Each plate set a blank control group, and ONC201 was used as the positive control group.

Data set [2] deals with A549. Put plainly: CCK-8 in vitro anti-tumor proliferation assay. The format is cell-based. The following applies: Homo sapiens, A549; Table 3; 72 hours; read-out: IC50(uM) A549. As to the method:
as §1

In data set [3] the test system is DLD1. The data set can be described thus: CCK-8 in vitro anti-tumor proliferation assay. It is filed as cell-based. The following applies: Homo sapiens, DLD-1, 72 hours. As to the method:
as §1

Data set [4] has as its system HCT115. Put plainly: CCK-8 in vitro anti-tumor proliferation assay. The following applies: Homo sapiens; Table 4; 72 hours. The format is cell-based. How it is done:
as §1

For data set [5], the system named is HCT116. Put plainly: CCK-8 in vitro anti-tumor proliferation assay. The format is cell-based. The following applies: Homo sapiens, HCT-116, 72 hours. How it is done: as §1
Data set [6] relates to HT29. The data set can be described thus: CCK-8 in vitro anti-tumor proliferation assay. The format is cell-based. Particulars: Homo sapiens, HT-29; Table 4; 72 hours. How it is done:
as §1

The subject of data set [7] is MV-4-11. The data set can be described thus: CCK-8 in vitro anti-tumor proliferation assay. The format is cell-based. The following applies: Homo sapiens, MV4-11; Table 3; 72 hours; read-out: IC50(uM) MV-4-11. How it is done: as §1
Data set [8] deals with Raji. Put plainly: CCK-8 in vitro anti-tumor proliferation assay. The format is cell-based. The following applies: Homo sapiens, Table 3, 72 hours, read-out: IC50(uM) Raji. How it is done: as §1
In data set [9] the test system is SW480. Put plainly: CCK-8 in vitro anti-tumor proliferation assay. Particulars: Homo sapiens, Table 4, 72 hours. It is filed as cell-based. As to the method:
as §1

Data set [10] concerns SW620. Put plainly: CCK-8 in vitro anti-tumor proliferation assay. The format is cell-based. Particulars: Homo sapiens, SW-620, 72 hours. How it is done:
as §1

For data set [11], the target named is T1, HsClpP (Homo sapiens, UniProt Q16740). Put plainly: Isothermal Titration calorimetry (ITC). Particulars: FIG. 3. The format is binding. How it is done: Isothermal Titration calorimetry experiments can measure the binding affinity between small molecules and proteins. Binding affinity is generally measured and reported through the equilibrium dissociation constant (Kd), where the smaller the Kd value, the higher the binding affinity of the ligand for its target. In the experiment, the loading-samples and proteins were placed in a degassing apparatus at 30° C., with a vacuum degree of 400 mmHg or higher, and degassed for 10 minutes. A 50 mL PBS buffer was prepared, and the sample cell and syringe were rinsed. After rinsing, the liquid in the sample cell was completely removed, and the degassed protein and small molecules were taken out. The sample cell was thoroughly washed with protein, and the syringe was rinsed with the small molecule solution 3-5 times. After washing, 250 μL of protein (0.5 mM) was extracted using the syringe, avoiding the formation of bubbles. Subsequently, 200 μL was injected into the sample cell. 50 μL of the small molecule solution (0.1 mM) was extracted using an injector, again avoiding the formation of bubbles. The titration syringe was loaded onto the instrument, and titration commenced after the instrument was balanced.
T1 sequence (Q16740 57-277): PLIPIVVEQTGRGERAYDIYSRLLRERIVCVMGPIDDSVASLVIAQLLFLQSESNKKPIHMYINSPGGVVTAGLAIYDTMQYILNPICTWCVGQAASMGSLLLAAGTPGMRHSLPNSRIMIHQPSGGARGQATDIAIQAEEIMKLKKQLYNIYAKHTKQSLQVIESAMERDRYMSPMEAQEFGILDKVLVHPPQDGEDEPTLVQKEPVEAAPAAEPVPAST
(In general: Isothermal titration calorimetry measures the heat released or taken up as one component is titrated into another.)

The subject of data set [12] is human normal embryonic kidney cells (HEK293). The data set can be described thus: In vitro cytotoxicity assay, CCK-8. The following applies: up to 50μM; FIG. 13.
Experimental: (§2) CCK8 and DMSO were products of Sigma. For in vitro experiment, the test compounds were prepared as 10 mM stock solutions in DMSO and stored at −20° C. in the refrigerator in the dark for later use, then diluted to desired concentration with complete culture medium before use. […] The previous culture medium was discarded, fresh culture medium was added to resuspend the cells, and then the cells were counted. According to the growth rate of different cells, the cell seeding concentration was determined, generally being 3000-5000 cells/well. After determining the seeding concentration, the cell suspension was diluted to desired concentrations with fresh culture medium, and then added to a 96-well plate with 100 μL per well, and 200 μL of PBS was added to the edge wells to prevent evaporation of the culture medium. On the second day, drug treatment was performed.
Data set [13] concerns rat myocardial cells (H9C2). The data set can be described thus: In vitro cytotoxicity assay, CCK-8. Particulars: FIG. 13.
Experimental: as §2
Data set [14] addresses T1, HsClpP. Put plainly: HsClpP enzyme hydrolysis of short peptide substrate AC-WLA-AMC. The following applies: for Regulatory efficacy 1 μM / Regulatory efficacy 10 μM: promoting hydrolysis of short peptide substrate by HsClpP, relative to blank control.
The mark [15] stands for this setting: Table 3, read-out: IC50(uM) DLD1.
Setting [16] is: Table 4, read-out: IC50 ( M) DLD1.
Setting [17] is: Table 4, read-out: IC50 ( M) HCT116.
Where [18] appears, read: Table 5, HCT116, read-out: IC50.
[19] abbreviates: Table 3, read-out: IC50(uM) SW620.
[20] abbreviates: Table 4, read-out: IC50 ( M) SW620.

`Cc1ccccc1CN1CCn2c1nc(=O)c1c2CCN(Cc2ccccc2)C1` [Compound 1, 7-benzyl-3-(2-methylbenzyl)-2,3,6,7,8,9-hexahydroimidazo[1,2-a]pyrido[3,4-e]pyrimidin-5(1H)-one]: the IC50 (in general, the concentration needed to halve the response being measured) stood at 0.5 µM in data set [1]; 2 µM in data set [2]; 0.2 µM in data set [3] (setting [15]); 0.5 µM in data set [3] (setting [16]); 1300 nM in data set [4]; 4e-07 M in [5] (setting [17]). In addition, the IC50 came to 4e-07 M in data set [5] (setting [18]); 5300 nM in data set [6]; 0.8 µM in data set [7]; 1 µM in data set [8]; 1100 nM in [9]; 0.6 µM in data set [10] (setting [19]). The IC50 in data set [10] (setting [20]) turned out to be 0.6 µM. Moreover, the “ITC thermodynamics of titration with HsClpP (AH, AS)” value in data set [11] was “AH<0, AS<0”. Further, the “Kd, affinity for HsClpP” value in data set [11] (compared to ONC201) was “much higher affinity for HsClpP compared to ONC201”. The “cytotoxicity on HEK293 cells” value in [12] was “no significant cytotoxicity”. In addition, the “inhibitory activity on H9C2 cells” value in [13] is given as “no significant inhibitory activity”. In [14], the “Regulatory efficacy 1 μM” value is listed as “+ +”. In data set [14], the “Regulatory efficacy 10 μM” value is “+ +”. In addition, it took 300 nM to reach a half-maximal effect in data set [14] (excitatory activity on HsClpP) (EC50).
As to `O=c1nc2n(c3c1CN(Cc1ccccc1)CC3)CCN2Cc1ccc(F)cc1` [Compound 15, 7-benzyl-3-(4-fluorobenzyl)-2,3,6,7,8,9-hexahydroimidazo[1,2-a]pyrido[3,4-e]pyrimidin-5(1H)-one], the half-maximal inhibitory concentration (IC50) in [3] (setting [16]) was 0.09 µM; in data set [4], 200 nM; in [5] (setting [17]) it was 8e-08 M; in data set [5] (setting [18]), 8e-08 M; in [6], 400 nM; in data set [9], 170 nM. The IC50 in data set [10] (setting [20]) stood at 0.19 µM. The EC50 (in general, the concentration that produces a half-maximal response) in data set [14] was found to be 100 nM. Further, the “Regulatory efficacy 1 μM” value in [14] is “+ +”. Also, the “Regulatory efficacy 10 μM” value in [14] is given as “+ +”.
For the compound `O=c1nc2n(c3c1CN(Cc1ccccc1)CC3)CCN2Cc1ccc(Cl)cc1` [Compound 16, 7-benzyl-3-(4-chlorobenzyl)-2,3,6,7,8,9-hexahydroimidazo[1,2-a]pyrido[3,4-e]pyrimidin-5(1H)-one], the IC50 is 0.1 µM in data set [3] (setting [16]); 250 nM in [4]; 8e-08 M in data set [5] (setting [17]); 8e-08 M in [5] (setting [18]); 70 nM in [6]; 100 nM in data set [9]. In addition, the IC50 in [10] (setting [20]) was 0.17 µM. The “Regulatory efficacy 1 μM” value in data set [14] was “+ +”. In data set [14], the “Regulatory efficacy 10 μM” value is on record as “+ +”.
Take `O=c1nc2n(c3c1CN(Cc1ccccc1)CC3)CCN2Cc1ccc(C(F)(F)F)cc1` [Compound 18, 7-benzyl-3-(4-trifluoromethylbenzyl)-2,3,6,7,8,9-hexahydroimidazo[1,2-a]pyrido[3,4-e]pyrimidin-5(1H)-one]: the IC50 in data set [1] is 0.2 µM; in data set [2], 0.2 µM; in data set [3] (setting [15]), 0.15 µM; in data set [5] (setting [18]), 3e-07 M; in data set [7] it was 0.05 µM; in data set [8], 0.1 µM. Moreover, in data set [10] (setting [19]), the IC50 stood at 0.5 µM. Further, in [14], the EC50 amounted to 300 nM. Moreover, the “Regulatory efficacy 1 μM” value in [14] was “+ +”. In data set [14], the “Regulatory efficacy 10 μM” value is “+ +”.
Turning to `O=c1nc2n(c3c1CN(Cc1ccccc1)CC3)CCN2Cc1ccc(F)cc1F` [Compound 19, 7-benzyl-3-(2,4-difluorobenzyl)-2,3,6,7,8,9-hexahydroimidazo[1,2-a]pyrido[3,4-e]pyrimidin-5(1H)-one], the IC50 in data set [1] amounted to 0.15 µM; in data set [2], 0.4 µM; in data set [3] (setting [15]) it was 0.2 µM; in [3] (setting [16]) it was 0.09 µM; in data set [4], 120 nM; in [5] (setting [17]), 9e-08 M. Moreover, the IC50 was determined as 1e-07 M in data set [5] (setting [18]); 80 nM in [6]; 0.05 µM in [7]; 0.1 µM in [8]; 120 nM in data set [9]; 0.15 µM in data set [10] (setting [19]). In [10] (setting [20]), the IC50 is 0.09 µM. In addition, the “Regulatory efficacy 1 μM” value in [14] is recorded as “+ +”. The “Regulatory efficacy 10 μM” value in data set [14] is recorded as “+ +”.
Regarding `O=c1nc2n(c3c1CN(Cc1ccccc1)CC3)CCN2Cc1ccc(F)c(F)c1` [Compound 20, 7-benzyl-3-(3,4-difluorobenzyl)-2,3,6,7,8,9-hexahydroimidazo[1,2-a]pyrido[3,4-e]pyrimidin-5(1H)-one], the IC50 is 0.1 µM in data set [1]; 0.5 µM in [2]; 0.5 µM in data set [3] (setting [15]); 0.15 µM in [3] (setting [16]); 200 nM in data set [4]; 1e-07 M in [5] (setting [17]). Moreover, the IC50 in data set [5] (setting [18]) worked out at 1e-07 M; in [6], 50 nM; in data set [7], 0.025 µM; in data set [8] it was 0.1 µM; in data set [9], 120 nM; in data set [10] (setting [19]) it was 0.14 µM. In data set [10] (setting [20]), the IC50 was determined as 0.15 µM. For the same compound, in data set [14], the “Regulatory efficacy 1 μM” value is on record as “+ +”. Moreover, the “Regulatory efficacy 10 μM” value in data set [14] is “+ +”.
Take `Cc1cccc(CN2CCc3c(c(=O)nc4n3CCN4Cc3ccccc3C)C2)c1` [Compound 32, 3-(2-methylbenzyl)-7-(3-methylbenzyl)-2,3,6,7,8,9-hexahydroimidazo[1,2-a]pyrido[3,4-e]pyrimidin-5(1H)-one]: in data set [5] (setting [18]), the IC50 came to 1.5e-06 M. For the same compound, in [14], the “Regulatory efficacy 1 μM” value was “+ +” and the “Regulatory efficacy 10 μM” value was “+ +”.
As to `Cc1ccccc1CN1CCn2c1nc(=O)c1c2CCN(Cc2cccc(C#N)c2)C1` [Compound 35, 3-((3-(2-methylbenzyl)-5-oxo-2,3,6,7,8,9-hexahydroimidazo[1,2-a]pyrido[3,4-e]pyrimidin-7(6H)-yl)methyl)benzonitrile], the IC50 in data set [5] (setting [18]) turned out to be 5e-07 M. Also, in data set [14], the “Regulatory efficacy 1 μM” value is on record as “+ +” and the “Regulatory efficacy 10 μM” value was “+ +”.
`Cc1ccccc1CN1CCn2c1nc(=O)c1c2CCN(C(=O)c2ccccc2)C1` [Compound 39, 7-benzoyl-3-(2-methylbenzyl)-2,3,6,7,8,9-hexahydroimidazo[1,2-a]pyrido[3,4-e]pyrimidin-5(1H)-one]: the IC50 in data set [5] (setting [18]) is over 1e-05 M. In [14], the “Regulatory efficacy 1 μM” value is “+ (+ indicating that the increased efficacy is less than 50% of the blank control group)” and the “Regulatory efficacy 10 μM” value is listed as “+ (+ indicating that the increased efficacy is less than 50% of the blank control group)”.
